Assay results taken from US20050222122A1, “Statin therapy for enhancing cognitive maintenance” (priority 2002, published 2005).

Legend:
serum β-amyloid = settings: patients with high low-density lipoprotein cholesterol; lovastatin 40 or 60 mg; cited from earlier work
[1] = system: patients with Alzheimer's disease; assay: Change in ADAS-cog/11 in combined double-blind, placebo-controlled galantamine clinical trials (5 to 6 months); format: in vivo, human; settings: combined trial data, galantamine 24 mg daily, controls for study and AD severity
Protocol: The objective was to evaluate the effect of statins on cognitive maintenance in patients with Alzheimer's disease during 5- and 6-month randomized clinical trials of galantamine.
Data were combined from 3 double-blind, placebo-controlled clinical trials limited to patients treated with galantamine 24 mg daily or placebo
Patients were categorized based on galantamine status and any statin use.
Changes in the Alzheimer's Disease Assessment Scale-cognitive subscale with standard 11 items (ADAS-cog/11) using last observation carried forward (LOCF) were assessed
Comparisons between patient subgroups were made controlling for relevant confounding factors.

Row | Compound | serum β-amyloid (serum β-amyloid) | ADAS-Cog change score, LS Means (SE) ([1]; Intent-to-treat analysis (LOCF)) | ADAS-Cog change score, LS Means (SE) ([1]; Intent-to-treat analysis (LOCF), listed as GAL-only) | ADAS-Cog change score, LS Means (SE) ([1]; Observed cases)
1 | CC[C@H](C)C(=O)O[C@H]1C[C@@H](C)C=C2C=C[C@H](C)[C@H](CC[C@@H]3C[C@@H](O)CC(=O)O3)[C@H]21 [lovastatin] | decreased serum β-amyloid |  |  | 
2 | COc1ccc2c3c1O[C@H]1C[C@@H](O)C=C[C@@]31CCN(C)C2 [GAL 24 only, (4aS,6R,8aS)-4a, 5,9,10,11,12-hexahydro-3-methoxy-1 1-methyl-6H-benzofuro[3a,3,2-ef][2]benzazepin-6-ol] |  | −0.88 (0.25) | −0.88 | −0.61 (0.28)
